Test results as given in patent publication US9453226B2, “Protection of cells from Alu-RNA-induced degeneration and inhibitors for protecting cells” (UNIVERSITY OF KENTUCKY RESEARCH FOUNDATION, priority 2011, dated 2016).

Tests used:
[1] = tested on: RPE; assay: Alu RNA-induced RPE degeneration in wild-type mice, inhibitors given intravitreously; format: in vivo; settings: WT mice; subretinal Alu RNA; inhibitor intravitreous
Protocol: Subretinal injection and imaging. Subretinal injections (1 μL) were performed using a Pico-Injector (PLI-100, Harvard Apparatus). Plasmids were transfected in vivo using 10% Neuroporter (Genlantis). Fundus imaging was performed on a TRC-50 IX camera (Topcon) linked to a digital imaging system (Sony). RPE flat mounts were immunolabeled using antibodies against zonula occludens-1 (Invitrogen).
Retinal photographs of dilated mouse eyes were taken with a TRC-50 IX camera (Topcon) linked to a digital imaging system (Sony).
Human eyes fixed in 2-4% paraformaldehyde were prepared as eyecups, cryoprotected in 30% sucrose, embedded in optimal cutting temperature compound (Tissue-Tek OCT; Sakura Finetek), and cryosectioned into 10 μm sections. Depigmentation was achieved using 0.25% potassium permanganate and 0.1% oxalic acid. Immunohistochemical staining was performed with the rabbit antibody against NLRP3 (1:100, Sigma Aldrich) or rabbit antibody against Caspase-1 (prediluted, AbCam). Isotype IgG was substituted for the primary antibody to assess the specificity of the staining. Bound antibody was detected with biotin-conjugated secondary antibodies, followed by incubation with ABC reagent and visualized by Vector Blue (Vector Laboratories). Levamisole (Vector Laboratories) was used to block endogenous alkaline phosphatase activity. Slides were washed in PBS, counterstained with neutral red (Fisher Scientific), rinsed with deionized water, air dried, and then mounted in Vectamount (Vector Laboratories). Fluorescent labeling of human tissue was performed with the rabbit antibody against PYCARD (1:50, Clone N-15, Santa Cruz Biotechnology) Immunolabeling was visualized by fluorescently conjugated anti-rabbit secondary antibody (Invitrogen). Tissue autofluorescence was quenched by incubating the sections in 0.3% Sudan black (Fisher Scientific). Sections were mounted in Vectashield with DAPI (Vector Laboratories). Mouse RPE/choroid flat mounts were fixed with 4% paraformaldehyde or 100% methanol, stained with rabbit antibodies against human zonula occludens-1 (1:100, Invitrogen) and visualized with Alexa594 (Invitrogen). All images were obtained using the Leica SP-5 or Zeiss Axio Observer Z1 microscopes.
Subretinal injections (1 μL) in mice were performed using a Pico-Injector (PLI-100, Harvard Apparatus). In vivo transfection of plasmids coding for two different Alu sequences (pAlu) or empty control vector (pNull) (Bennett et al., 2008; Kaneko et al., 2011; Shaikh et al., 1997) was achieved using 10% Neuroporter (Genlantis). AAV1-BEST1-Cre (Alexander and Hauswirth, 2008) or AAV1-BEST1-GFP were injected at 1.0×10^11 pfu/mL and in vitro transcribed Alu RNA was injected at 0.3 mg/mL.
siRNAs formulated in siRNA buffer (20 mM KCL, 0.2 mM MgCl2 in HEPES buffer at pH 7.5; Dharmacon) or phosphate buffered saline (PBS; Sigma-Aldrich); the TLR4 antagonist Ultra Pure Rhodobacter sphaeroides LPS (LPS-RS, InvivoGen), a peptide inhibitor of MyD88 homodimerization IMG-2005 (IMGENEX), control inhibitor (IMGENEX), recombinant IL-18 (Medical & Biological Laboratories), neutralizing rat antibodies against mouse IL-1β (IMGENEX), neutralizing rat antibodies against mouse IL-18 (Medical & Biological Laboratories), isotype control IgGs (R&D Systems or eBioscience as appropriate), Caspase-1 inhibitor Z-WEHD-FMK (R&D Systems), Caspase control inhibitor Z-FA-FMK (R&D Systems), DPI (Enzo Life Sciences), Mito-TEMPO (Enzo Life Sciences), MitoQ and dTPP (both adsorbed to cyclodextrin and provided by M.P. Murphy, MRC Mitochondrial Biology Unit), and gp91ds-tat and scrambled gp91 ds-tat (both Anaspec), were dissolved in phosphate buffered saline (PBS; Sigma-Aldrich) or dimethyl sulfoxide (DMSO; Sigma-Aldrich), and injected into the vitreous humor in a total volume of 1 μL with a 33-gauge Exmire microsyringe (Ito Corporation). […] As a control, Luc siRNA-chol (17+2 nt) was used with identical dosages.

[2] = tested on: human RPE cells; assay: Loss of human RPE cell viability induced by DICER1 antisense; format: cell-based
[3] = tested on: Dicer1 f/f mouse RPE cells; assay: Loss of viability of Dicer1 f/f mouse RPE cells treated with Ad-Cre; format: cell-based
Protocol: Cells were plated at density of 15×10^3/cm^2 and after 16 h, at approximately 50% confluence, were infected with AdCre or AdNull (Vector Laboratories) with a multiplicity of infection of 1,000.

[4] = tested on: miRNA; assay: miRNA abundance in Dicer1-depleted mouse RPE cells; format: cell-based
Text: Total RNA containing miRNAs was polyadenylated and reverse transcribed using universal primer using the All-In-One miRNA q-RT-PCR Detection Kit (GeneCopoeia) according to the manufacturer's specifications using a universal reverse primer in combination with the following forward primers: mouse miR-184 (5′-[…]-3′); mouse miR-221/222 (5′-[…]-3′); mouse miR-320a (5′-[…]-3′), and mouse miR-484 (5′-[…]-3′). miRNA levels were normalized to levels of U6 snRNA (5′-[…]-3′) using the 2^−ΔΔCt method. Detection was achieved by SYBR green qPCR with the following conditions: 95° C. for 10 min followed by 40 cycles of 95° C. for 10 s, 60° C. for 20 s and 72° C. for 20 s. Amplicon specificity was assessed by melt curve analysis and unique bands by agarose gel electrophoresis.

DRQIKIWFQNRRMKWKKRDVLPGT [MyD88 inhibitory peptide]
Alu RNA-induced RPE degeneration [1]: prevented RPE degeneration | loss of human RPE cell viability induced by DICER1 antisense (AS) [2]: rescues | loss of cell viability in Dicer1 f/f mouse RPE cells treated with Ad-Cre [3]: rescues | miRNA abundance versus control peptide [4]: No significant difference
